Molecules are shown by their SMILES.

In assay [1] the test system is 2DL4-induced production of IFN-gamma. Description: MAPK inhibitors on anti-2DL4 mAb-induced IFN-gamma secretion by resting NK cells. Type of assay: cell-based, human.
Assay [2] deals with IL-2-mediated induction of IFN-gamma production. The experiment in a line: MAPK inhibitors on rIL-2-induced IFN-gamma release by resting NK cells. Type of assay: cell-based, human. Particulars: rIL-2 5 U/ml, 20 h.

On to `COc1cccc(-c2cc(=O)c3ccccc3o2)c1N` [PD98059], for which the “inhibition of 2DL4-induced IFN-gamma production” value in assay [1] (concentration not given) was “only a partial inhibitory effect”. The “inhibition of IL-2-mediated induction of IFN-gamma production” value in assay [2] (50 μM inhibitor) is recorded as “severely inhibited”.
In the case of `C[S+]([O-])c1ccc(-c2nc(-c3ccncc3)c(-c3ccc(F)cc3)[nH]2)cc1` (stereo not shown) [SB203580], the “inhibition of 2DL4-induced IFN-gamma production” value in assay [1] (1 μM inhibitor) is given as “Complete inhibition”. Also, in assay [2] (concentration not given), the “effect on IL-2-mediated induction of IFN-gamma production” value was “unaffected”.

(Values after patent publication US7435801B2, “Antibodies and other ligands directed against KIR2DL4 receptor for production of interferon gamma” (The United States of America, as represented by the …, priority 2000, dated 2008).)
